According to paper PMC10180276, “Hot-Melt Extrusion as an Effective Technique for Obtaining an Amorphous System of Curcumin and Piperine with Improved Properties Essential for Their Better Biological Activities” (Molecules, 2023):
Converted amounts (≈) assume the structure as drawn.

Legend:
[1] = Apparent solubility study in phosphate buffer pH 6.8; format: physicochemical
Protocol: (§1) The injection volume differed depending on the assay. […] The method’s duration was 12 min.
(§2) Phosphate buffer at pH 6.8 was prepared according to the following description: in a 1000 mL volumetric flask, we placed 250 mL of 0.2 N potassium dihydrogen phosphate solution, then added 112 mL of 0.2 N sodium hydroxide solution, and filled the mixture up to 1000 mL with distilled water. High-quality pure water was prepared using a Direct-Q 3 UV purification system (Millipore, Molsheim, France, model Exil SA 67120).
An excess amount of raw compounds and systems (corresponding to 1.5 mg of each substance) was placed in a 10 mL glass tube; then, 2.0 mL of phosphate buffer (pH 6.8) was added and left at room temperature for 3 h.

[2] = Dissolution study, paddle apparatus, phosphate buffer pH 6.8; format: physicochemical; conditions: phosphate buffer pH 6.8, 37 °C, 50 rpm; after one hour (plateau)
Protocol: as §1, §2
The dissolution study was performed on the paddle apparatus (Agilent 708-DS dissolution apparatus, Santa Clara, CA, USA). The amount of the compound and systems corresponding to 7.0 mg of each plant-origin active ingredient was added to the gelatin capsule, placed in a spring used as a sinker, and then added to the dissolution medium. The vessels were filled with 500 mL of phosphate buffer, pH 6.8; the temperature was maintained at 37 °C, and the paddles were set at a stirring speed of 50 rotations per minute. The 2.0 mL samples were withdrawn at predetermined time points (5 min, 15 min, 30 min, 1 h, 2 h, 3 h, 4 h, 5 h, and 6 h) with the replacement of equal volumes of temperature-equilibrated media.

[3] = PAMPA BBB permeability model; format: in vitro ADME; conditions: pH 7.4
Protocol: as §1
The sandwich consists of two 96-well microfilter plates.

in vitro = conditions: PAMPA, pH 6.8
Protocol: Concentrations of curcumin and piperine during solubility, dissolution rate, and permeability studies were measured by high-performance liquid chromatography with the DAD detector (HPLC-DAD). In this study, a Shimadzu Nexera system (Shimadzu Corp., Kyoto, Japan) was used, equipped with an SCL-40 system controller, a DGU-403 degassing unit, a LC-40B XR solvent delivery module, a SIL-40C autosampler, a CTO-40C column oven, and a SPD-M40 photodiode array detector. For the stationary phase, a Dr. Maisch ReproSil-Pur Basic-C18 100 Å column with 5 µm particle size and 250 × 4.60 mm (Dr. Maisch, Ammerbuch-Entringen, Germany) was used. The mobile phase was acetonitrile:0.1% acetic acid (85:15 v/v). The mobile phase was vacuum-filtered through a 0.45 µm nylon filter (Phenomenex, Torrance, CA, USA). The experimental conditions were as follows: 0.5 mL/min flow rate, wavelengths of 420 nm for curcumin and 340 nm for piperine, and a column temperature of 30 °C. The injection volume differed depending on the assay. […] The method’s duration was 12 min. […]
In vitro gastrointestinal (GIT) and blood–brain barrier (BBB) permeability were studied using the PAMPA (Parallel Artificial Membrane Permeability Assay) models. […] The Papp factor was calculated according to the previously reported method. […] The results were expressed as a concentration in the acceptor solution.

Structure (SMILES)	solubility at 3 h [1] [µg/mL]	curcumin dissolved, % of the dose [2] [%]	Papp at 3 h [3] [×10⁻⁶ cm/s]	Papp at 3 h (in vitro) [×10⁻⁶ cm/s]	piperine dissolved, % of the dose [2] [%]
COc1cc(/C=C/C(=O)CC(=O)/C=C/c2ccc(O)c(OC)c2)ccc1O [curcumin]	0.1 (≈ 0.271 µM)	2.54 ± 0.15	2.63	1.63	
O=C(/C=C/C=C/c1ccc2c(c1)OCO2)N1CCCCC1 [piperine]	6 ± 0.1 (≈ 21 µM)		57.7	8.18	22.63 ± 0.67
